Like-named read-outs stand apart in the source and are kept apart here.

The conditions of data set [1]: cited from earlier work.
Data set [2] has as its system linoleate isomerase from Clostridium sporogenes. The data set can be described thus: C. sporogenes linoleate isomerase kinetic assay, absorbence at 234 nm, partially purified enzyme. As to conditions: for RELATIVE ACTIVITY %: compound as substrate at 10 PPM, activity with linoleic acid set as 100%; for substrate has an inhibitory effect at concentrations above: substrate concentration dependency of isomerization. The data set is classed as biochemical. As to the method:
In this experiment, all kinetic experiments were performed in a quartz cuvette (1-cm light-path with a magnetic stirrer) at room temperature using a HP 8452A diode array spectrophotometer. The cuvette was filled with 1 ml of incubation buffer containing 50 μg protein, 0.1 M potassium phosphate, pH7.5, 10 mM NaCl and 10% 1,2-propane diol. The isomerization was initiated by adding a small aliquot (1-2 μl) of freshly diluted substrate-stock (˜[…] linoleic acid) in 1,2-propane diol at 50 seconds. The increase in absorbence at 234 nm was monitored and recorded. […] The amount of product formed was calculated based on a molar extinction coefficient of 24,000.

Data set [3] has as its system B. fibrisolvens A-38 linoleate isomerase. Conditions: compound as substrate; Kepler and Tove (1967); cited from earlier work.
Data set [4] has as its system L. reuteri PYR8 linoleate isomerase. Description: L. reuteri PYR8 linoleate isomerase kinetic assay. Type of data set: biochemical, Lactobacillus reuteri. As to the method: Linoleic isomerase activity was assayed either via CLA quantification by gas chromatography as described in Example 2 or by spectrophotometry. The enzyme assay was carried out in 0.1 M Tris buffer pH 7.5, 10 mM NaCl, 1 mM dithiothreitol, with linoleic acid at 20 parts per million (ppm), unless otherwise noted.
About 50 to about 250 μL of enzyme sample was added to 1.5 mL of enzyme assay buffer for reaction. About 1 to about 2 mL of aqueous phase was separated from the enzyme reaction and was extracted with about 3 mL of hexane. In some experiments, and with chromatography fractions containing detergent, 0.5 mL of methanol and 0.5 mL of 5 M NaCl solution were first added to enhance phase separation. The organic layer was separated and the absorbence at 234 nm was measured using a HP 8452A diode array spectrophotometer. Depending on the level of activity, assay mixtures of chromatography fractions were incubated at room temperature from about 1 to about 24 hours before extraction with hexane.
Kinetic assays were performed directly in a 0.5 mL quartz cuvette at room temperature and were continuously monitored at 234 nm. Reactions were initiated by addition of linoleic acid from a concentrated stock prepared in 1,2-propane diol. Reaction buffer was the same as above except it contained 10% 1,2-propane diol.

Data set [5] concerns the target P. acnes ATCC 6919 linoleate isomerase (Cutibacterium acnes, UniProt Q6A8X5). Type of data set: biochemical, Propionibacterium acnes. Conditions: pH of about 7.5, about 20° C.; read-out: Km for linoleic acid. As to the method: Formation of CLA was determined by measuring the absorbence at 234 nm. […] Generally, the isomerase was assayed using an endpoint assay after 30 to 60 minutes incubation at room temperature. FIG. 18 (time course assay at different linoleic acid levels) and FIG. 19 (end point assay at different linoleic acid levels) show the effect of increasing substrate concentration on formation of […].

Data set [6] deals with C. sporogenes ATCC 25762 linoleate isomerase. The data set can be described thus: C. sporogenes isomerase activity and stability in extracts with additives. Conditions: tested from 0 to 100 ppm; crude extracts. The data set is classed as biochemical, Clostridium sporogenes. As to the method:
Temperature sensitivity of the isomerase in crude extracts was tested at 4° C., room temperature (˜25° C.) and 37° C. […] The optimum pH was monitored by adjusting the pH from 5.0 to 9.0 using the 0.1M Tris buffer containing 10 mM NaCl, 1 mM DTT and 40 ppm linoleic acid.
The concentration of linoleic acid was tested from 0 to 100 ppm (FIG. 26).
Two different media, BHI and MRS, were tested. […] Protease inhibitors, PMSF (0.1-1.0 mM), iodoacetamide (1 mM) and pepstatin A were tested for their effects on the stability of the isomerase.
It has been reported that solubilization in the presence of lysophosphatidylcholine (LPC) allows higher detergent concentrations to be used, thus allowing more complete membrane protein solubilization. CaCl2 can activate enzymes, such as some nucleases.

In data set [7] the test system is L. reuteri PYR8. The data set can be described thus: Whole cell biotransformation of linoleic acid to CLA by L. reuteri PYR8. The data set is classed as cell-based, Lactobacillus reuteri. Conditions: for effect on (cis,trans)-9,11-CLA formation: nonionic detergent added.
Method: Cultures were grown and harvested as described above. Washed cells were resuspended in either fresh growth medium or 0.1 M Tris pH 8.0 buffer containing linoleic acid at various concentrations.
Samples were taken at appropriate intervals and analyzed for CLA as described in Example 2. In some experiments, various detergents were added to 0.1-0.5% final concentration. […] About 5 mL solvent was added to about 20 mL aqueous cell suspension in a 125 mL baffled shake flask incubated at room temperature.
Whole cells of L. reuteri PYR8 were used in all biotransformation experiments described below.
The effect of substrate and product on the enzyme performance was also investigated, as well as the possibility of recycling the cells. The effect of CLA on the reaction was studied by adding different concentrations of either a mixture of isomers (Sigma material, approximately 41% 9,11 isomer and 48% 10,12 CLA), or just 9,11 CLA (Matreya material, approximately 77% 9,11 CLA). Concentrations from 500 to 3000 ppm were tested. Some experiments were also performed recycling the broth from a previous biotransformation reaction with L. reuteri PYR8, resulting in an initial CLA concentration around 700 ppm. In every case, 1000 ppm linoleic acid were added.
In the second experiment, cell recycle was studied with cells that have performed the biotransformation at different levels of linoleic acid. Cells were harvested, resuspended in breakage buffer at a 10-fold concentration, and linoleic acid was added at 1000, 1500, 2000, 2500 and 3000 ppm level. Given the higher linoleic acid concentration, the reaction was allowed to proceed for six hours. […] 1000 ppm linoleic acid were added and the reaction was followed for four hours.
Where [8] appears, read: compound as substrate, read-out: Km.
[9] abbreviates: pH of about 7.5, about 20° C., read-out: Km for linoleic acid.

Chain of P. acnes ATCC 6919 linoleate isomerase (Q6A8X5 entry or part of it): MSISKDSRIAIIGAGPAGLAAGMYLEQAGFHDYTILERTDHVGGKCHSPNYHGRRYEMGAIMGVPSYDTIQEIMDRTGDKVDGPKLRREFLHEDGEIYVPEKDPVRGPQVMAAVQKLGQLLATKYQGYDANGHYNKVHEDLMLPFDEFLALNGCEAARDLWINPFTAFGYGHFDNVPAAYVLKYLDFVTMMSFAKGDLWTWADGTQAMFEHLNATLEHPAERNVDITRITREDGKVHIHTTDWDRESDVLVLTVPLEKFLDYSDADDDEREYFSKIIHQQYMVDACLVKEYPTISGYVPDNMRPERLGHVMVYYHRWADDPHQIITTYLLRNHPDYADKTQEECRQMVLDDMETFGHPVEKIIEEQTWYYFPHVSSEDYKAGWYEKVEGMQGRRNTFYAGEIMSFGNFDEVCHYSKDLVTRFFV

In general, log P refers to a log measure of how a compound divides between an organic and an aqueous phase. `CCCCCCCCCCCCCCCC` [hexadecane]: the “log P” value in data set [1] is reported as 8.6.
The Km is the substrate concentration at which the rate is half of its maximum. Turning to `CCCCC/C=C\C/C=C\CCCCCCCC(=O)O` [linoleic acid, (cis, cis)-9, 12-octadecadienoic acid], the “maximal velocity (Vmax)” value in data set [2] (Lineweaver-Burke plot) worked out at 350 μmol CLA/min/mg protein. The Km in data set [2] (Lineweaver-Burke plot, read-out: Km) was 11.3 µM; in data set [2] (setting [8]), 11.3 µM; in data set [2] (setting [9]), no less than 11.3 µM; in data set [3], 12 µM; in data set [4] (setting [8]) it was 8.1 µM; in data set [4] (setting [9]), no less than 8.1 µM. For the same compound, the Km in data set [5] is no less than 17.2 µM. The Vmax in data set [2] (compound as substrate) is recorded as 350 nmole/min/mg protein; in data set [3], 55 nmole/min/mg protein; in data set [4] (compound as substrate) it was 880 nmole/min/mg protein. The “RELATIVE ACTIVITY %” value in data set [2] was found to be 100%. Also, the “substrate has an inhibitory effect at concentrations above” value in data set [2] was “above 20 μM”. Also, the “optimum concentration for linoleic acid” value in data set [6] amounted to 40 ppm. The substrate inhibition result in data set [7] (up to 3000 ppm linoleic acid, cells with good activity) is reported as “no substrate inhibition was detected”.
With Triton X-100, the “effect on (cis,trans)-9,11-CLA formation” value in data set [7] is reported as “does not significantly increase”.
On to `CC/C=C\C/C=C\C/C=C\CCCCCCCC(=O)O` [linolenic acid, (cis, cis, cis)-9, 12, 15 octadecatrienoic acid], for which the Vmax in data set [2] (compound as substrate) amounted to 811 nmole/min/mg protein. For the same compound, in data set [2], the “RELATIVE ACTIVITY %” value came to 84% and the “substrate has an inhibitory effect at concentrations above” value was greater than 40 µM. In addition, in data set [2] (setting [8]), the Km worked out at 22.5 µM. In data set [3], the Km was 23 µM and the Vmax was 130 nmole/min/mg protein.
Consider `CCCCCCCC/C=C\CCCCCCCC(=O)OCCOCC(OCCO)C1OCC(OCCO)C1OCCO` (stereo not drawn) [Tween-80], for which the “effect on (cis,trans)-9,11-CLA formation” value in data set [7] is on record as “does not significantly increase”.

The values above are taken from US20050003383A1, “Linoleate isomerase” (Arkion Life Sciences LLC d/b/a Bio-Technical Resources …, priority 1999, published 2005).
